Experimental data: patent US20080009418A1, “Selective Inhibitors” (Alchemia LTD., priority 2004, published 2008)

Tests used:
Human δ-opioid (DOP) = target: T1, Human δ-opioid (DOP) (Homo sapiens, UniProt P41143); test: Radioligand binding, human δ-opioid (DOP) membranes, FlashPlate, [3H]-Bremazocine; settings: compound at 10 μM, [3H]-Bremazocine
T1 construct: purchased Perkin Elmer Biosignal
Summary of the method: (§1)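 Cloned human receptor membranes were coated onto FlashPlate wells and incubated with radioligand and compound (added from a 0.5 mM DMSO daughter plate) for 1 hour at room temperature in the dark. Scintillation counting gave percent inhibition, with DMSO defining total and reference ligand defining non-specific binding.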

Human κ-Opioid (KOP) = target: T2, Human κ-Opioid (KOP) (Homo sapiens, UniProt P41145); test: Radioligand binding, human κ-opioid (KOP) membranes, filtration, [3H]-Diprenorphine; settings: compound at 10 μM, [3H]-Diprenorphine
T2 construct: purchased Perkin Elmer Biosignal
T2 sequence (P41145 whole entry): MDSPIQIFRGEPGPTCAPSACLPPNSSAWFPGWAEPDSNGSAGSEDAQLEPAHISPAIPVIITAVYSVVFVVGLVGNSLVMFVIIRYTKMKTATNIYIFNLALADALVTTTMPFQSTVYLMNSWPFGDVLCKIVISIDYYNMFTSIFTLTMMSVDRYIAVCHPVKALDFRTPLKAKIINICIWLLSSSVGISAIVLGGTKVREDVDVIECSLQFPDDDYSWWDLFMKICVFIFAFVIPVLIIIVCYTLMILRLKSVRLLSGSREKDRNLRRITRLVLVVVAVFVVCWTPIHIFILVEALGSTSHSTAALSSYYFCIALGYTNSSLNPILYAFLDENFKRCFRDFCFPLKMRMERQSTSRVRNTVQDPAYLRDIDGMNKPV
Summary of the method: (§2)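 Percent inhibition of radioligand binding measured on recombinant human membranes: NK1 with [125I]-Substance P, KOP with [3H]-Diprenorphine. Incubation 1 h at room temperature, then harvest onto 0.3% PEI-soaked filters, cold Tris-HCl pH 7.4 washes and scintillation counting; non-specific binding from reference ligand wells.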

Human Melanocortin (MC3) = target: T3, Human Melanocortin (MC3) (Homo sapiens, UniProt P41968); test: Radioligand binding, human melanocortin MC3 membranes, FlashPlate, [125I]-NDP-αMSH; settings: compound at 10 μM, [125I]-NDP-αMSH
T3 construct: purchased Perkin Elmer Biosignal
T3 sequence (P41968 whole entry): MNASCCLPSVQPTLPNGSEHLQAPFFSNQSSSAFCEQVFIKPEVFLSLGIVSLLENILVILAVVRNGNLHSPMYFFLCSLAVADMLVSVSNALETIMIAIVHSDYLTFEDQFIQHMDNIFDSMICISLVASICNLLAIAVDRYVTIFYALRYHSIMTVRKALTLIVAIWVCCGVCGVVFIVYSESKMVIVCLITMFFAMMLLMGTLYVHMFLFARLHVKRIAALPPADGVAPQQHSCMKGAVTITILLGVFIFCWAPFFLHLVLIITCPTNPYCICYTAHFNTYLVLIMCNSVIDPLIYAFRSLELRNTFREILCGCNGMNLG
Summary of the method: as §1

Human Melanocortin (MC4) = target: T4, Human Melanocortin (MC4) (Homo sapiens, UniProt P32245); test: Radioligand binding, human melanocortin MC4 membranes, FlashPlate, [125I]-NDP-αMSH; settings: compound at 10 μM, [125I]-NDP-αMSH
T4 construct: purchased Perkin Elmer Biosignal
T4 sequence (P32245 whole entry): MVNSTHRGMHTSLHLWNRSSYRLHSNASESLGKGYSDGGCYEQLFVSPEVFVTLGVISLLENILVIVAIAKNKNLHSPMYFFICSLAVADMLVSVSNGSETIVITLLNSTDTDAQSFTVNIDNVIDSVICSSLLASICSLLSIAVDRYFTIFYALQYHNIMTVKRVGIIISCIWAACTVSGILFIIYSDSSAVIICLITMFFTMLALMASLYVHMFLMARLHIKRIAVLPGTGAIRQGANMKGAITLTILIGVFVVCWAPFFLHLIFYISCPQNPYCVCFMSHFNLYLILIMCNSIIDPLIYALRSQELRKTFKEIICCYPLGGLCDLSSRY
Summary of the method: as §1

Human melanocortin (MC5) = target: T5, Human melanocortin (MC5) (Homo sapiens, UniProt P33032); test: Radioligand binding, human melanocortin MC5 membranes, FlashPlate, [125I]-NDP-αMSH; settings: compound at 10 μM, [125I]-NDP-αMSH
T5 construct: purchased Perkin Elmer Biosignal
T5 sequence (P33032 whole entry): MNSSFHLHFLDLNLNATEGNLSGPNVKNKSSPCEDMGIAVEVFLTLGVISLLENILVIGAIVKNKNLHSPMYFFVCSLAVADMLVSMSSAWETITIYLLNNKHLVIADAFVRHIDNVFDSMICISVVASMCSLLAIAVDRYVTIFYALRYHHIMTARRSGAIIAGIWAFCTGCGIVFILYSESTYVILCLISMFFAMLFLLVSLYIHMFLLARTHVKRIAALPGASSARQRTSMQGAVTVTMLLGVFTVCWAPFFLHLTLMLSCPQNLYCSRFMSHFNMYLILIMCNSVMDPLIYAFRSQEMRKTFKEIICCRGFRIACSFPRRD
Summary of the method: as §1

[1] = target: T6, Human melanin-concentrating hormone (MCH1) (Homo sapiens, UniProt Q99705); test: Radioligand binding, human melanin-concentrating hormone MCH1 membranes, FlashPlate, [125I]-S36057; settings: compound at 10 μM
T6 construct: purchased Perkin Elmer Biosignal
T6 sequence (Q99705 whole entry): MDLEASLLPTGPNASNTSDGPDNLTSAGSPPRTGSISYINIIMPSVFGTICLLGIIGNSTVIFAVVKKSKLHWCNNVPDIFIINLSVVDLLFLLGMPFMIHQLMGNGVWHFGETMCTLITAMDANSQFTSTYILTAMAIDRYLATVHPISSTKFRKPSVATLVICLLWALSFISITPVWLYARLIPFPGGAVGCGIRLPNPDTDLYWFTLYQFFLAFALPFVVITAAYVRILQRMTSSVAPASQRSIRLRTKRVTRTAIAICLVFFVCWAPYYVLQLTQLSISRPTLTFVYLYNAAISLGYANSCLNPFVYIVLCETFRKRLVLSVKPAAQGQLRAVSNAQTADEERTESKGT
Summary of the method: as §1

Human μ-opioid (MOP) = target: T7, Human μ-opioid (MOP) (Homo sapiens, UniProt P35372); test: Radioligand binding, human μ-opioid (MOP) membranes, FlashPlate, [3H]-Naloxone; settings: compound at 10 μM, [3H]-Naloxone
T7 construct: purchased Perkin Elmer Biosignal
T7 sequence (P35372 whole entry): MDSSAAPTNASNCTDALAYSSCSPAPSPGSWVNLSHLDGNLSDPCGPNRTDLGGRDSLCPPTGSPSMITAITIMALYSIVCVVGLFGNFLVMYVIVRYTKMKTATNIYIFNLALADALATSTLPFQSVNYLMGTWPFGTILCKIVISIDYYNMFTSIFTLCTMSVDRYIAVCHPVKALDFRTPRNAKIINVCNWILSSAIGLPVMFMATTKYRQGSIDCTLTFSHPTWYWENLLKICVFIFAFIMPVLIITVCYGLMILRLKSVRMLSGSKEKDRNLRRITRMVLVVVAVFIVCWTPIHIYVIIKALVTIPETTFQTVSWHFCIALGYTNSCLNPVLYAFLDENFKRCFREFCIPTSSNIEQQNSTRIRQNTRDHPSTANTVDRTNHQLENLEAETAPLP
Summary of the method: as §1

Human neurokinin (NK1) = target: T8, Human neurokinin (NK1) (Homo sapiens, UniProt P25103); test: Radioligand binding, human neurokinin NK1 membranes, filtration, [125I]-Substance P; settings: compound at 10 μM, [125I]-Substance P
T8 construct: purchased Perkin Elmer Biosignal
T8 sequence (P25103 whole entry): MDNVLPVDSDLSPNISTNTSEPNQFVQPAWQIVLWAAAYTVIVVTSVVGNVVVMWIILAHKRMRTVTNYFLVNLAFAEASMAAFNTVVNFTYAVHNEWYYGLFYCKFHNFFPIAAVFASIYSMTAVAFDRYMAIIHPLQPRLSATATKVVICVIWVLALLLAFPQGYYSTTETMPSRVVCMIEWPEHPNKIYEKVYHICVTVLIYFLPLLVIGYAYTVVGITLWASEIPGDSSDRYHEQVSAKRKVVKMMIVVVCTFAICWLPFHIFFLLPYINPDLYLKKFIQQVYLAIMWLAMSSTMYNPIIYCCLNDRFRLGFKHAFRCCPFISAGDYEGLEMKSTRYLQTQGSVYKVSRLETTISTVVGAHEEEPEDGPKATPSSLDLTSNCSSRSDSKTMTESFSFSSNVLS
Summary of the method: as §2

[2] = target: T9, Human neuropeptide Y (NPY-Y1) (Homo sapiens, UniProt P25929); test: Radioligand binding, human neuropeptide Y NPY-Y1 membranes, FlashPlate, [125I]-PYY; settings: compound at 10 μM, [125I]-PYY
T9 construct: purchased Perkin Elmer Biosignal
T9 sequence (P25929 1-384): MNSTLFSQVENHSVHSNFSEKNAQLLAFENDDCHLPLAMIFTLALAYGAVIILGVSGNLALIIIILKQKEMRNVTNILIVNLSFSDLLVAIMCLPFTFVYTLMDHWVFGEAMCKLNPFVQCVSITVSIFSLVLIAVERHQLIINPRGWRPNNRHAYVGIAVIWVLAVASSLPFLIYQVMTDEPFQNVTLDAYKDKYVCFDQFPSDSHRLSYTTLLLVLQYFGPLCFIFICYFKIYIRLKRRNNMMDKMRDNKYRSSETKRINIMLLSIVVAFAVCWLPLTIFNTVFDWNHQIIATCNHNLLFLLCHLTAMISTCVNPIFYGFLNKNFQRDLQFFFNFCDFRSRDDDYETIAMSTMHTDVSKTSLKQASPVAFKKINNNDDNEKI
Summary of the method: as §1

Human opioid (ORL1) = target: T10, Human opioid (ORL1) (Homo sapiens, UniProt P41146); test: Radioligand binding, human opioid ORL1 membranes, FlashPlate, [125I]-Nociceptin; settings: compound at 10 μM, [125I]-Nociceptin
T10 construct: purchased Perkin Elmer Biosignal
T10 sequence (P41146 whole entry): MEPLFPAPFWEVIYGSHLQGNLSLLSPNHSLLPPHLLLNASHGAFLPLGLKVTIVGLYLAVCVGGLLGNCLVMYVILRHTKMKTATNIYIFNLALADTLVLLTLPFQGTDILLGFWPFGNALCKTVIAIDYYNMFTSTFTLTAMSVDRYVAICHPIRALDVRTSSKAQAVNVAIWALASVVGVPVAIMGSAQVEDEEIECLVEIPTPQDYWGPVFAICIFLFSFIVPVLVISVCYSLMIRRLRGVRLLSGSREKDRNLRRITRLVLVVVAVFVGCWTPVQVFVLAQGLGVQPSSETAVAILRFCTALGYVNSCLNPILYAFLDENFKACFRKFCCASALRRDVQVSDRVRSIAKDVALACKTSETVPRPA
Summary of the method: as §1

Mouse urotensin (mUR2) = target: T11, Mouse urotensin (mUR2) (Mus musculus, UniProt Q8VIH9); test: Radioligand binding, mouse urotensin mUR2 membranes, FlashPlate, [125I]-Urotensin II; settings: compound at 10 μM, [125I]-Urotensin II
T11 construct: purchased Perkin Elmer Biosignal
T11 sequence (Q8VIH9 1-385): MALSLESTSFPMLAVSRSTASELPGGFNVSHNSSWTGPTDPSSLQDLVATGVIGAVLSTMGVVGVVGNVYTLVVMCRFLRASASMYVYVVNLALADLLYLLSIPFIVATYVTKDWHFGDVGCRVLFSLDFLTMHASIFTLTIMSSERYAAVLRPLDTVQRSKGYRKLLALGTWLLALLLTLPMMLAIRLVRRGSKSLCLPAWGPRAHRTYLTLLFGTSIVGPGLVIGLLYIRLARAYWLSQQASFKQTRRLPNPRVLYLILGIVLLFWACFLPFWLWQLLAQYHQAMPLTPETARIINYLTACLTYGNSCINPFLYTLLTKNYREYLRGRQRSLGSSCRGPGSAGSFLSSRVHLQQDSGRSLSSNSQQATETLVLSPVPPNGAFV
Summary of the method: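 Cloned mouse urotensin (mUR2) receptor membranes from Perkin Elmer Biosignal were immobilized in FlashPlate microplates using a proprietary coating. Each well got 19.5 μl buffer, then 0.5 μl of DMSO, reference ligand, or compound. Adding 5 μl of [125I]-Urotensin II, diluted to 5× final concentration in binding buffer, started binding. Plates were sealed with TopSeal-A and incubated 1 hour at room temperature in the dark. Wells were counted for 30 seconds each on a TopCount after a 60-second delay, and percentage inhibition was calculated.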

T1 sequence (P41143 whole entry): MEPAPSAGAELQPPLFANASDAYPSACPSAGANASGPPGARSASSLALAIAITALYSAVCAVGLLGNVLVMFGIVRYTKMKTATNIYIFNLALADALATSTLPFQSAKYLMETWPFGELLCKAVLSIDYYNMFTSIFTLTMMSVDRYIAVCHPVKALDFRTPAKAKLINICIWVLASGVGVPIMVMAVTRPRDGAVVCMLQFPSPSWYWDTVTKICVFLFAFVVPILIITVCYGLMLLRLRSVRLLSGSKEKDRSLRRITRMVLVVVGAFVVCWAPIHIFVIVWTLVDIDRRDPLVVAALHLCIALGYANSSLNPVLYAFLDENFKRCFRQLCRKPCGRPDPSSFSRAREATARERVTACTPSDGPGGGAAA

SMILES: CO[C@H]1[C@H](O)[C@@H](COCc2ccc3ccccc3c2)OC(OCc2cccc(O)c2)[C@@H]1NC(=O)CCNC(=N)N (stereo partly drawn) [compound 166]
- A1 radioligand binding, percentage inhibition (Human δ-opioid (DOP)): − (“−” indicates less than 50% inhibition at 10 μM)
- A2 radioligand binding, percentage inhibition (Human κ-Opioid (KOP)): − (“−” indicates less than 50% inhibition at 10 μM)
- A3 radioligand binding, percentage inhibition (Human Melanocortin (MC3)): − (“−” indicates less than 50% inhibition at 10 μM)
- A4 radioligand binding, percentage inhibition (Human Melanocortin (MC4)): + (“+” indicates greater than 50% inhibition at 10 μM)
- A5 radioligand binding, percentage inhibition (Human melanocortin (MC5)): + (“+” indicates greater than 50% inhibition at 10 μM)
- A6 radioligand binding, percentage inhibition ([1]; [125I]-S36057): − (“−” indicates less than 50% inhibition at 10 μM)
- A7 radioligand binding, percentage inhibition (Human μ-opioid (MOP)): − (“−” indicates less than 50% inhibition at 10 μM)
- A8 radioligand binding, percentage inhibition (Human neurokinin (NK1)): + (“+” indicates greater than 50% inhibition at 10 μM)
- A9 radioligand binding, percentage inhibition [2]: − (“−” indicates less than 50% inhibition at 10 μM)
- A10 radioligand binding, percentage inhibition (Human opioid (ORL1)): − (“−” indicates less than 50% inhibition at 10 μM)
- A11 radioligand binding, percentage inhibition (Mouse urotensin (mUR2)): − (“−” indicates less than 50% inhibition at 10 μM)

SMILES: COCC1OC(OCc2ccc3ccccc3c2)C(NC(=O)CN)C(OCc2ccc(-c3ccccc3)cc2)C1O (stereo not drawn) [compound 241]
- A1: inhibition of radioligand binding (Human δ-opioid (DOP); FlashPlate): − (“−” indicates less than 50% inhibition at 10 μM)
- A2: inhibition of radioligand binding (Human κ-Opioid (KOP); filtration): − (“−” indicates less than 50% inhibition at 10 μM)
- A3: inhibition of radioligand binding (Human Melanocortin (MC3); FlashPlate): − (“−” indicates less than 50% inhibition at 10 μM)
- A4: inhibition of radioligand binding (Human Melanocortin (MC4); FlashPlate): + (“+” indicates greater than 50% inhibition at 10 μM)
- A5: inhibition of radioligand binding (Human melanocortin (MC5); FlashPlate): + (“+” indicates greater than 50% inhibition at 10 μM)
- A6: inhibition of radioligand binding ([1]; [125I]-S36057, FlashPlate): − (“−” indicates less than 50% inhibition at 10 μM)
- A7: inhibition of radioligand binding (Human μ-opioid (MOP); FlashPlate): − (“−” indicates less than 50% inhibition at 10 μM)
- A8: inhibition of radioligand binding (Human neurokinin (NK1); filtration): + (“+” indicates greater than 50% inhibition at 10 μM)
- A9: inhibition of radioligand binding ([2]; FlashPlate): − (“−” indicates less than 50% inhibition at 10 μM)
- A10: inhibition of radioligand binding (Human opioid (ORL1); FlashPlate): − (“−” indicates less than 50% inhibition at 10 μM)
- A11: inhibition of radioligand binding (Mouse urotensin (mUR2); FlashPlate): − (“−” indicates less than 50% inhibition at 10 μM)

SMILES: NCCC(=O)NC1C(OCc2ccc(Cl)cc2)OC(COCc2ccccc2)C(O)C1OCc1ccc(Cl)cc1 (single isomer, unassigned) [compound 473]
- A1: inhibition of radioligand binding (Human δ-opioid (DOP); human DOP membranes): − (“−” indicates less than 50% inhibition at 10 μM)
- A2: inhibition of radioligand binding (Human κ-Opioid (KOP); human KOP membranes): − (“−” indicates less than 50% inhibition at 10 μM)
- A3: inhibition of radioligand binding (Human Melanocortin (MC3); human MC3 membranes): − (“−” indicates less than 50% inhibition at 10 μM)
- A4: inhibition of radioligand binding (Human Melanocortin (MC4); human MC4 membranes): − (“−” indicates less than 50% inhibition at 10 μM)
- A5: inhibition of radioligand binding (Human melanocortin (MC5); human MC5 membranes, 10 µM): + (“+” indicates greater than 50% inhibition at 10 μM)
- A6: inhibition of radioligand binding ([1]; [125I]-S36057, human MCH1 membranes, 10 µM): + (“+” indicates greater than 50% inhibition at 10 μM)
- A7: inhibition of radioligand binding (Human μ-opioid (MOP); human MOP membranes, 10 µM): + (“+” indicates greater than 50% inhibition at 10 μM)
- A8: inhibition of radioligand binding (Human neurokinin (NK1); human NK1 membranes): + (“+” indicates greater than 50% inhibition at 10 μM)
- A9: inhibition of radioligand binding ([2]; human NPY-Y1 membranes): − (“−” indicates less than 50% inhibition at 10 μM)
- A10: inhibition of radioligand binding (Human opioid (ORL1); human ORL1 membranes, 10 µM): − (“−” indicates less than 50% inhibition at 10 μM)
- A11: inhibition of radioligand binding (Mouse urotensin (mUR2); mouse mUR2 membranes): − (“−” indicates less than 50% inhibition at 10 μM)
